Results published in patent publication US10941187B2 (The United States of America, as represented by the …, priority 2001, dated 2021).
“Also recorded” adds a separate entry of the source. Ends that are not written are not given here.

Tests used:
RIN 1048-36 cells = test: Insulin secretion in vitro in RIN 1048-36 cells; assay type: cell-based, rat; details: peptide 1×10−8 M, 5 mM glucose, 1 h; compared with GLP-1 and exendin-4
Procedure: Thereafter, they were preincubated for 2 periods of 30 min each with glucose-free buffer (containing mM: 140 NaCl, 5 KCl, 1 NaPO4, 1 MgSO4, 2 CaCl, 20 HEPES buffer (pH 7.4), and 0.1% bovine serum albumin) in a 37° C. humidified incubator. […] After 1 h the medium was removed and stored at −80° C. prior to quantification of insulin levels by EIA (Crystal Chem, Chicago Ill.), and the cells were lysed with HCl (300 μl, 0.1 M, 20 min, RT) for measurement of total protein using the Bradford method (Bio-Rad, Richmond, Calif.) with bovine γ-globulin as a standard.

[1] = test system: Zucker fatty (fa/fa) and Wistar rats; test: Blood glucose and insulin after subcutaneous injection; assay type: in vivo, rat; details: 24 nmol/kg s.c.
Procedure: Six-month old male Zucker fa/fa rats (Harlan, Indianapolis, Ind.) and six-month old Wistar rats were used in this study. They were allowed ad libitum access to chow and water and were on a 12 h light, 12 h dark cycle (lights on 0700 h). The bedding for the Zucker rats was a paper based product, “Carefresh” (Absorption Co., Belingham, Wash.). The Zucker rats were fasted on wire, in the absence of bedding, overnight before the experiment. Wistar rats were fasted on their normal bedding. General anaesthesia was induced by an intraperitoneal injection of pentobarbital (50 mg/kg).

[2] = test system: fasted, diabetic Zucker rats; test: Duration of in vivo insulinotropic action after intraperitoneal peptide; design: species or system rat; details: 0.4 nmol/kg i.p.
Procedure: The time-dependent duration of insulinotropic action was evaluated by quantifying plasma insulin and glucose levels in Zucker rats following intraperitoneal (i.p.) peptide administration. Specifically, after overnight fasting, diabetic male rats, approximately 400 g weight, were anesthetized with 50 mg/kg pentobarbital and a catheter was tied into their right femoral artery for blood collection. […] Blood, taken prior to peptide administration, at 30 and 60 min, and at 2, 4, 6 and 24 h, was drawn into heparinized tubes containing EDTA and aprotinin for insulin determination, and a separate sample was taken to measure glucose. Plasma was separated, removed and immediately frozen to −70° C. Thereafter insulin levels were quantified by using a rat insulin ELISA kit (Crystal Chem Inc., Chicago, Ill.) and plasma glucose was quantified by the glucose oxidase method.

PC12 cells [3] = test: Inhibition of GLP-1, exendin-4 and NGF induced neurite outgrowth in PC12 cells; assay type: cell-based, rat; details: 48 h; PD98059 50 μM, LY294002 40 μM, H89 20 μM, or exendin (9-39) with exendin-4
Procedure: NGF at 50 ng/ml and forskolin (PKA activator) (20 μM) were used as positive controls in these treatments.

synaptophysin = test: Synaptophysin expression in PC12 cells (Western blot); assay type: cell-based, rat; details: PC12 cell lysates
Procedure: The synaptophysin monoclonal antibody (Oncogene Research Products, San Diego Calif.), which stains neurosecretory vesicles of PC12 cells, was used. The membranes were blocked with 20 mM Tris, 500 mM NaCl pH 7.4, 1% (w/v) casein (BioRad, San Diego Calif.) at 37° C. for 1 hour. Primary antibody was diluted in block and incubated with the proteins overnight at 4° C. The membrane was vigorously washed with 20 mM Tris pH 7.4, 150 mM NaCl and 0.05% Tween-20 (TBST), three times for 15 minutes at room temperature. The peroxidase-linked secondary antibody in block was incubated with the membrane for 2 hours at room temperature. Peroxidase-linked anti-mouse IgM (Chemicon, Tenecula, Calif.) was used as the secondary antibody against synaptophysin. Excess antibody was washed off with three vigorous washes in TBST prior to incubation in ECL Plus (Amersham, Philadelphia, Pa.) for 5 minutes. The membrane was subsequently exposed to photographic film.

PC12 cells [4] = test: Bromodeoxyuridine incorporation in PC12 cells; details: day 1; GLP-1 33 μg/ml, NGF 50 ng/ml
Procedure: Immunocytochemistry with an anti-BrdU antibody after labeling was used to identify cells that were actively replicating DNA at the time of labeling. […] 10 μM BrdU was added to the culture medium for 6 hours prior to fixing in 4% paraformaldehyde, to label cellular DNA. The remainder of the method was followed according to the proliferation kit (Roche, Indianapolis, Ind.). […] BrdU incorporation was quantitated on days 1, 2 and 3 of treatment. Three dishes for each treatment condition were counted and expressed as the percentage of labeled cells relative to the total number of cells.

[5] = test system: β-amyloid precursor protein (βAPP); test: Western immunoblot of βAPP (cell lysates) and sAPP (conditioned media) in PC12 cells; details: day 3, relative to untreated
Aβ1-40 [6] = test: Aβ1-40 sandwich ELISA of PC12 conditioned media; assay type: cell-based, rat; details: PC12 cells, relative to control cells
PC12 cells [7] = test: Neurite outgrowth in PC12 cells; assay type: cell-based, rat; details: day 3
Procedure: Three dishes for each treatment condition were prepared. Treatments began 24 hours after seeding, once cells were well attached.
PC12 cells were grown on 60 mm dishes as above and cultured for four days. During this time neurite outgrowth was quantified daily. Five random fields of cells were evaluated per dish and the proportion of neurite-bearing cells was determined. Approximately 100 cells per field were scored for neurites equal to or greater in length than that of the cell body. A cell was only scored once, although it may have had more than one process per cell.

Aβ1-40 [8] = test: Aβ1-40 in whole brain homogenates after i.c.v. infusion in control mice; assay type: in vivo, mouse; details: 2 μg NGF i.c.v., 48 h, p<0.01
Procedure: Lean db+/db+ control male mice (n=24) were anaesthetized with 50 mg/kg pentobarbitone and placed in a stereotaxic surgical frame with mouse adaptor (David Kopf Instruments, Tujunga, Calif.) using temporal bone cup holders. […] After 48 h all animals were sacrificed by cervical dislocation, the brains removed and rapidly frozen in liquid nitrogen. Brains were pulverized and stored at −80° C. prior to assaying for Aβ levels.
Equivalent volumes of conditioned media and whole brain homogenate were assayed for Aβ1-40 using a sandwich ELISA (Suzuki et. al., 1994). The monoclonal antibody BAN50 (raised against Aβ1-16) was used as the capture antibody for all species of Aβ (Aβ1-40 and Aβ1-42), and the monoclonal antibody BA27 was used to specifically detect Aβ1-40 levels. Levels of Aβ1-40 were expressed in pM concentrations for conditioned media samples and finol/g for the mouse brain homogenates, as deduced from the appropriate standard curve run in parallel with the assay.

Molecule: CC[C@H](C)[C@H](NC(=O)[C@H](Cc1ccccc1)NC(=O)[C@H](CCC(=O)O)NC(=O)[C@H](CCCCN)NC(=O)[C@H](C)NC(=O)[C@H](C)NC(=O)[C@H](CCC(N)=O)NC(=O)CNC(=O)[C@H](CCC(=O)O)NC(=O)[C@H](CC(C)C)NC(=O)[C@H](Cc1ccc(O)cc1)NC(=O)[C@H](CO)NC(=O)[C@H](CO)NC(=O)[C@@H](NC(=O)[C@H](CC(=O)O)NC(=O)[C@H](CO)NC(=O)[C@@H](NC(=O)[C@H](Cc1ccccc1)NC(=O)[C@@H](NC(=O)CNC(=O)[C@H](CCC(=O)O)NC(=O)CNC(=O)[C@@H](N)Cc1c[nH]cn1)[C@@H](C)O)[C@@H](C)O)C(C)C)C(=O)N[C@@H](C)C(=O)N[C@@H](Cc1c[nH]c2ccccc12)C(=O)N[C@@H](CC(C)C)C(=O)N[C@H](C(=O)N[C@@H](CCCCN)C(=O)NCC(=O)N[C@@H](CCCNC(=N)N)C(N)=O)C(C)C [GLP-1 Gly^8]
- induction of insulin secretion (RIN 1048-36 cells): induced insulin secretion slightly more than exendin-4
- hypoglycemia in Zucker rats ([1]; fasted Zucker fatty rats): drop in blood glucose into the hypoglycemic range
- blood glucose ([1]; fasted rats, monitored 8 h): rapidly lowered blood glucose
- potency on plasma insulin versus equimolar standard [2]: more potent than equimolar GLP-1

Molecule: O=S(=O)(NCCNC/C=C/c1ccc(Br)cc1)c1cccc2cnccc12 [H89]
- effect on GLP-1, exendin-4 or NGF induced neurite outgrowth (PC12 cells [3]): some inhibitory effects on GLP-1 and NGF-induced neurite outgrowth

Molecule: COc1cccc(-c2cc(=O)c3ccccc3o2)c1N [PD98059]
- effect on GLP-1, exendin-4 or NGF induced neurite outgrowth (PC12 cells [3]): reduced GLP-1 and exendin-4 induced neurite outgrowth

Molecule: exendin (9-39)
- effect on GLP-1, exendin-4 or NGF induced neurite outgrowth (PC12 cells [3]): failed to initiate neurite extension

Molecule: nerve growth factor [NGF]
- maximal decrease in synaptophysin expression relative to control cells (synaptophysin): approximately 70%
- synaptophysin expression (synaptophysin; relative to untreated): dramatically reduced the expression of the synaptophysin protein
- increased incorporation of BrdU relative to untreated (PC12 cells [4]): 9%
- intracellular levels of βAPP (cell lysates) [5]: dramatic increases in intracellular levels of βAPP
- Aβ1-40 levels in conditioned media (Aβ1-40 [6]): significant increases in Aβ1-40 levels
- increase in neurite projections from controls (PC12 cells [7]; NGF 10 ng/ml): 550%
- increase in neurite projections from controls (PC12 cells [7]; NGF 30 ng/ml): 720%
- reduction of Aβ1-40 levels compared to vehicle (Aβ1-40 [8]): 40%

Molecule: peptide 8: GLP-1 with A to G substitution at position 8 and V to L at position 16 (SEQ ID NO:5) (HGEGTFTSDLSSYLEGQAAKEFIAWLVKGR)
- induction of insulin secretion (RIN 1048-36 cells): retained the ability to induce insulin secretion; also recorded: substantially greater effect on insulin secretion than either GLP-1 or exendin-4

Molecule: peptide 9: GLP-1 with A/G, V/L, S/K, Y/Q, L/M substitutions at position 8, 16, 18, 19, 20 (SEQ ID NO: 6) (HGEGTFTSDLSKQMEGQAAKEFIAWLVKGR)
- induction of insulin secretion (RIN 1048-36 cells): retained the ability to induce insulin secretion; also recorded: restores activity

Molecule: peptide 15: truncation of exendin-4 including residues up to and including residue 43 (SEQ ID NO:12)
- induction of insulin secretion (RIN 1048-36 cells): inducing effect that exceeded that of exendin-4 or GLP-1

Molecule: peptide 30: peptide 1 with neutral serine replaced by basic lysine in position 18 (SEQ ID NO:27) (HGEGTFTSDVSKYLEGQAAKEFIAWLVKGR)
- induction of insulin secretion (RIN 1048-36 cells): loss of activity

Molecule: peptide 36: exendin-4 with arginine in position 36 and position 30 modified from glutamic acid to alanine (SEQ ID NO:33) (HGEGTFTSDLSKQMEEEAVREFIAWLKNGR; not fully specified)
- induction of insulin secretion (RIN 1048-36 cells): well tolerated
